Test results published in ChEMBL document CHEMBL4483862, “Open-source discovery of chemical leads for next-generation chemoprotective antimalarials” (2018).
pIC50: −log10 of the molar value.

Test system: Plasmodium berghei
Assay: Luciferase/luciferin-expressing antifolate-resistant parasites were used to infect a culture of HepG2 cells that were pre-incubated with compounds. Infected hepatocytes emit light due to the luciferase reaction. Assay results are presented as the percent inhibition of light emission compared to control. […]
Assay type: functional
Conditions: sporozoite; for IC90: read-out: LUCIFERASE INFECTION ASSAY - IC90
[1] = read-out: LUCIFERASE INFECTION ASSAY - IC50

CCNC(=O)C1CCCN(C(=O)c2c(-c3ccccc3)noc2C)CC1 (configuration not stated)
pIC50 [1]: < 5.03 | IC90: > 9.28 µM

CC(C)Oc1ccc(-c2nc3c4c5c(sc4ncn3n2)CN(C)CC5)cc1
pIC50 (HEPG2TOX_HILL_SLOPE 0.881, HEPG2TOX_R_SQUARED 0.629, PBLUC_HILL_SLOPE 9.03, PBLUC_R_SQUARED 0.277, read-out: LUCIFERASE INFECTION ASSAY - IC50): 5.08 | IC90: > 8.7 µM

CN(C)c1nc(N)nc(CSc2nc(N)c3c4c(sc3n2)CCCC4)n1
pIC50 (HEPG2TOX_HILL_SLOPE 2.63, HEPG2TOX_R_SQUARED 0.627, PBLUC_HILL_SLOPE 2.91, PBLUC_R_SQUARED 0.214, read-out: LUCIFERASE INFECTION ASSAY - IC50): 5.04 | IC90: > 10 µM

CCN1C(=Cc2cc(C)[n+](CCCN3CCOCC3)c(C)c2)Sc2ccccc21
pIC50 (HEPG2TOX_HILL_SLOPE 1.6, HEPG2TOX_R_SQUARED 0.978, PBLUC_HILL_SLOPE 2.92, PBLUC_R_SQUARED 0.557, read-out: LUCIFERASE INFECTION ASSAY - IC50): 5.57 | IC90: 5.67 µM

O=C(COCc1nc2ccccc2s1)NCc1ccc(Cn2cccn2)cc1
pIC50 [1]: < 5.00 | IC90: > 10 µM

CCn1c(=O)c(C)nc2cc(C(=O)Nc3ccc(C(C)(C)C)cc3)ccc21
pIC50 (HEPG2TOX_HILL_SLOPE 2.17, HEPG2TOX_R_SQUARED 0.922, PBLUC_HILL_SLOPE 3.75, PBLUC_R_SQUARED 0.489, read-out: LUCIFERASE INFECTION ASSAY - IC50): 6.02 | IC90: 1.74 µM

O=C(O)C1CSC(c2ccccc2)N1 (configuration not stated)
pIC50 [1]: < 4.80 | IC90: > 15.8 µM

CCN(CC)c1ccc(NC(=O)c2[nH]nc3ccccc23)cc1S(=O)(=O)Nc1ccc(OC)cc1
pIC50 (PBLUC_HILL_SLOPE 10.5, PBLUC_R_SQUARED 0.206, read-out: LUCIFERASE INFECTION ASSAY - IC50): 5.04 | IC90: > 10 µM

COC(=O)c1c(C)nn(C(=O)c2ccc(Cl)cc2)c1-c1snnc1C
pIC50 [1]: < 5.06 | IC90: > 8.76 µM

Cn1cc(-c2cnc3cnc(-c4ccncc4)cn23)cn1
pIC50 (HEPG2TOX_HILL_SLOPE 1.93, HEPG2TOX_R_SQUARED 0.473, PBLUC_HILL_SLOPE 0.98, PBLUC_R_SQUARED 0.306, read-out: LUCIFERASE INFECTION ASSAY - IC50): 5.00 | IC90: > 11.9 µM

CC(C)(C)C(=O)CSc1nnc(-c2ccccc2F)[nH]1
pIC50 [1]: < 5.00 | IC90: > 10 µM

COc1cccc(N(C)C(=O)c2nn(Cc3ccccc3)c(=O)c3ccccc23)n1
pIC50 [1]: < 5.00 | IC90: > 10 µM

Cc1cccc(OCc2nnc(SCC(=O)c3ccc4c(c3)CCC4)o2)c1
pIC50 [1]: < 5.00 | IC90: > 10 µM

O=C(C1CC(=O)N(c2ccccc2F)C1)N1CCN(c2ccc(C(F)(F)F)cn2)CC1 (configuration not stated)
pIC50 [1]: < 5.00 | IC90: > 10 µM

CC(Oc1ccccc1[N+](=O)[O-])C(=O)N(c1nccs1)C1CCCCC1 (configuration not stated)
pIC50 [1]: < 5.00 | IC90: > 10 µM

N#Cc1c(Cl)cccc1N1CCC(C#N)CC1
pIC50 (HEPG2TOX_HILL_SLOPE 0.959, HEPG2TOX_R_SQUARED 0.904, PBLUC_HILL_SLOPE 1.25, PBLUC_R_SQUARED 0.0637, read-out: LUCIFERASE INFECTION ASSAY - IC50): 5.20 | IC90: > 13.4 µM

CCC(CNC(=O)NCC(=O)Nc1cc(Cl)ccc1Cl)c1ccccc1 (configuration not stated)
pIC50 (FFLUC_HILL_SLOPE 6.98, FFLUC_R_SQUARED 0.07, read-out: LUCIFERASE INFECTION ASSAY - IC50): < 5.00 | IC90: > 10 µM

CC(C)C(NC(=O)c1ccc(C(C)(C)C)cc1)C(=O)Nc1ncc(Cc2ccc(Cl)cc2)s1 (configuration not stated)
pIC50 [1]: < 5.00 | IC90: > 10 µM

COC(=O)c1c(CSc2nnnn2C)nc2ccccc2c1-c1ccccc1
pIC50 [1]: < 5.00 | IC90: > 10 µM

CCCCN(C(=O)c1cccnc1SC)c1nc2ccc(C)cc2s1
pIC50 [1]: < 5.00 | IC90: > 10 µM

Cc1ccc(OCCNC(=O)c2[nH]c3c(c2C)C(=O)CCC3)c(C)c1
pIC50 (HEPG2TOX_HILL_SLOPE 1.42, HEPG2TOX_R_SQUARED 0.935, PBLUC_HILL_SLOPE 2.91, PBLUC_R_SQUARED 0.758, read-out: LUCIFERASE INFECTION ASSAY - IC50): 5.89 | IC90: 2.74 µM

COc1ccc(NS(=O)(=O)c2cc(NC(=O)C3=NNC(=O)CC3)ccc2C)cc1
pIC50 (HEPG2TOX_HILL_SLOPE 2.75, HEPG2TOX_R_SQUARED 0.923, PBLUC_HILL_SLOPE 2.64, PBLUC_R_SQUARED 0.0563, read-out: LUCIFERASE INFECTION ASSAY - IC50): 5.30 | IC90: > 10 µM

Cc1cc(C(=O)CNC(=O)Nc2ccccc2)c(C)n1-c1ccc(F)c(Cl)c1
pIC50 (HEPG2TOX_HILL_SLOPE 8.63, HEPG2TOX_R_SQUARED 0.403, PBLUC_HILL_SLOPE 1.87, PBLUC_R_SQUARED 0.488, read-out: LUCIFERASE INFECTION ASSAY - IC50): 5.53 | IC90: 9.57 µM

Cc1ccc(-c2cnc(N)c(-c3ccc(C(=O)NCCN(C)C)cc3)c2)cc1
pIC50 [1]: < 5.06 | IC90: > 8.81 µM

CCOc1cccc(-c2cn3c(-c4ccc(C(=O)N5CCN(C)CC5)cc4)cnc3cn2)c1
pIC50 (PBLUC_HILL_SLOPE 18.7, PBLUC_R_SQUARED 0.82, read-out: LUCIFERASE INFECTION ASSAY - IC50): 5.19 | IC90: 7.28 µM

CCOC(=O)c1c(C)[nH]c(N=Nc2cccc(C(F)(F)F)c2)c1C
pIC50 [1]: < 5.00 | IC90: > 10 µM

Cc1cccc(C(=O)NCC(=O)Nc2ncc(C)s2)c1
pIC50 (HEPG2TOX_HILL_SLOPE 123, HEPG2TOX_R_SQUARED 0.298, PBLUC_HILL_SLOPE 16, PBLUC_R_SQUARED 0.209, read-out: LUCIFERASE INFECTION ASSAY - IC50): 5.04 | IC90: > 10 µM

CCN(CC)CCCNS(=O)(=O)c1c(C)n[nH]c1C
pIC50 (PBLUC_HILL_SLOPE 10.1, PBLUC_R_SQUARED 0.0336, read-out: LUCIFERASE INFECTION ASSAY - IC50): < 5.00 | IC90: > 10 µM

COc1ccccc1NC(=O)c1ccc(NC(=O)Cn2ncc(Cl)c(Cl)c2=O)cc1
pIC50 [1]: 5.47 | IC90: 4.54 µM

CC1CCc2sc(C(=O)N(C)Cc3nc(=O)c4ccccc4[nH]3)cc2C1 (configuration not stated)
pIC50 (PBLUC_HILL_SLOPE 2.24, PBLUC_R_SQUARED 0.489, read-out: LUCIFERASE INFECTION ASSAY - IC50): 5.60 | IC90: 6.74 µM

COc1ccc(C(OC[C@H]2O[C@@H](n3cnc4c(N)ncnc43)CC2O)(c2ccccc2)c2ccc(OC)cc2)cc1 (some centres not stated)
pIC50 [1]: < 5.22 | IC90: > 5.96 µM

CCOc1ccc(/C=C/C(=O)C(C(N)=O)=C2SCCS2)cc1
pIC50 [1]: < 5.00 | IC90: > 10 µM

Cc1ccc(-c2nc(C(=O)NC3CC3)cc3c2[nH]c2ccccc23)cc1
pIC50 (HEPG2TOX_HILL_SLOPE 1.45, HEPG2TOX_R_SQUARED 0.961, PBLUC_HILL_SLOPE 3.11, PBLUC_R_SQUARED 0.33, read-out: LUCIFERASE INFECTION ASSAY - IC50): 5.44 | IC90: 7.38 µM

CN(C)C(=O)COC(=O)c1cccc(CN2C(=O)c3ccccc3C2=O)c1
pIC50 [1]: < 5.00 | IC90: > 10 µM

C/C(=N\NC(=S)NC(C)(C)C)c1cc(Cl)cc(Cl)c1O
pIC50 (FFLUC_HILL_SLOPE 16.6, FFLUC_R_SQUARED 0.277, read-out: LUCIFERASE INFECTION ASSAY - IC50): < 5.01 | IC90: > 9.87 µM

Cc1cc(C2=NNC(=NC3CC3)SC2)c(C)n1-c1ccc2c(c1)OCO2
pIC50 (FFLUC_HILL_SLOPE 2.46, FFLUC_R_SQUARED 0.719, PBLUC_HILL_SLOPE 1.67, PBLUC_R_SQUARED 0.595, read-out: LUCIFERASE INFECTION ASSAY - IC50): 5.58 | IC90: 9.71 µM

O=C(Nc1cc(S(=O)(=O)c2ccccc2)cs1)c1cccc(Cl)c1
pIC50 (FFLUC_HILL_SLOPE 2.16, FFLUC_R_SQUARED 0.469, read-out: LUCIFERASE INFECTION ASSAY - IC50): < 5.06 | IC90: > 8.73 µM

O=C(Nc1cccc(Cl)c1)c1cccc(NC(=O)c2cccs2)c1
pIC50 (HEPG2TOX_HILL_SLOPE 11.6, HEPG2TOX_R_SQUARED 0.635, PBLUC_HILL_SLOPE 2.89, PBLUC_R_SQUARED 0.488, read-out: LUCIFERASE INFECTION ASSAY - IC50): 5.36 | IC90: 9.24 µM

N=C(N)N/N=C/c1ccc(N(c2ccccc2)c2ccccc2)cc1
pIC50 [1]: 5.10 | IC90: 9.95 µM

Cc1nnc(Sc2ccc([N+](=O)[O-])c(Sc3nnc(C)s3)n2)s1
pIC50 (HEPG2TOX_HILL_SLOPE 6.33, HEPG2TOX_R_SQUARED 0.72, PBLUC_HILL_SLOPE 8.1, PBLUC_R_SQUARED 0.222, read-out: LUCIFERASE INFECTION ASSAY - IC50): < 5.07 | IC90: > 8.58 µM

COc1ccccc1-n1nnnc1SCC(O)Cn1c2ccccc2c2ccccc21 (configuration not stated)
pIC50 (FFLUC_HILL_SLOPE 2.23, FFLUC_R_SQUARED 0.596, PBLUC_HILL_SLOPE 13.3, PBLUC_R_SQUARED 0.223, read-out: LUCIFERASE INFECTION ASSAY - IC50): 5.00 | IC90: > 10 µM

COc1cc(C)c(CN2CCC(c3nc4ccccc4s3)CC2)cc1OC
pIC50 (HEPG2TOX_HILL_SLOPE 1.28, HEPG2TOX_R_SQUARED 0.688, PBLUC_HILL_SLOPE 2.8, PBLUC_R_SQUARED 0.756, read-out: LUCIFERASE INFECTION ASSAY - IC50): 5.60 | IC90: 5.49 µM

Cc1sc2nc(-c3cccnc3)nc(NC3CCC(O)CC3)c2c1-c1ccccc1 (configuration not stated)
pIC50 [1]: < 5.00 | IC90: > 10 µM

CCC(C)NC(=O)c1c(NC(=O)c2cccc(F)c2)nc2ccc(C)cn12 (configuration not stated)
pIC50 (FFLUC_HILL_SLOPE 0.281, FFLUC_R_SQUARED 0.0242, HEPG2TOX_HILL_SLOPE 2.05, HEPG2TOX_R_SQUARED 0.911, PBLUC_HILL_SLOPE 3.14, PBLUC_R_SQUARED 0.667, read-out: LUCIFERASE INFECTION ASSAY - IC50): 5.84 | IC90: 2.91 µM

OC(c1ccc(Cl)c(F)c1)c1nc(-c2cccc(C(F)(F)F)c2)c[nH]1 (configuration not stated)
pIC50 (FFLUC_HILL_SLOPE 12.1, FFLUC_R_SQUARED 0.0756, read-out: LUCIFERASE INFECTION ASSAY - IC50): < 5.05 | IC90: > 8.9 µM

O=C(Cc1csc(-c2ccccn2)n1)Nc1sc2c(c1C(=O)NCc1ccccc1)CCCC2
pIC50 [1]: < 5.00 | IC90: > 10 µM
